We go through 45 compounds from US7572799B2, “Pyrazolo[4,3-d]pyrimidines as Phosphodiesterase Inhibitors” (Pfizer Inc, priority 2003, dated 2009).

Read-outs that look alike come from different tables or passages of the source.

The target of the assay is PDE-5 (UniProt O76074). Description: In vitro PDE inhibitory activity against PDE5 (batch method or scintillation proximity assay). The class given is biochemical, human. To be noted: representative compounds. The text has this: The compounds of the invention are inhibitors of cyclic guanylate monophosphate (cGMP)-specific phosphodiesterase type 5 (PDE-5 inhibitors).
The required PDE enzymes can be isolated from a variety of sources, including human corpus cavernosum, human and rabbit platelets, human cardiac ventricle, human skeletal muscle and bovine retina, essentially by a modification of the method of Thompson, W J et al.; Biochemistry 18(23), 5228-5237, 1979, as described by Ballard S A et al.; J. Urology 159(6), 2164-2171, 1998. In particular, cGMP-specific PDE5 and cGMP-inhibited cAMP PDE3 can be obtained from human corpus cavernosum tissue, human platelets or rabbit platelets; cGMP-stimulated PDE2 was obtained from human corpus cavernosum; calcium/calmodulin (Ca/CAM)-dependent PDE1 from human cardiac ventricle; cAMP-specific PDE4 from human skeletal muscle; and photoreceptor PDE6 from bovine retina. Phosphodiesterases 7-11 can be generated from full length human recombinant clones transfected into SF9 cells.
Assays can be performed either using a modification of the “batch”method of Thompson W J and Appleman M M; Biochemistry 10(2), 311-316, 1971, essentially as described by Ballard S A et al.; J. Urology 159(6), 2164-2171, 1998, or using a scintillation proximity assay for the direct detection of [^3H]-labelled AMP/GMP using a modification of the protocol described by Amersham plc under product code TRKQ7090/7100. In summary, for the scintillation proximity assay the effect of PDE inhibitors was investigated by assaying a fixed amount of enzyme in the presence of varying inhibitor concentrations and low substrate, (cGMP or cAMP in a 3:1 ratio unlabelled to [^3H]-labeled at a concentration of ˜⅓ Km, or less) such that IC50≅Ki. The final assay volume was made up to 100 μl with assay buffer [20 mM Tris-HCl pH 7.4, 5 mM MgCl2, 1 mg/ml bovine serum albumin]. Reactions were initiated with enzyme, incubated for 30-60 min at 30° C. to give <30% substrate turnover and terminated with 50 μl yttrium silicate SPA beads (containing 3 mM of the respective unlabelled cyclic nucleotide for PDEs 9 and 11).

Turning to `CCOCCn1nc(C(=O)O)c2nc(N(C)CC)nc(Nc3cccc(C)c3)c21` [Example 118, 1-(2-Ethoxyethyl)-5-[ethyl(methyl)amino]-7-[(3-methylphenyl)amino]-1H-pyrazolo[4,3-d]pyrimidine-3-carboxylic acid], the IC50 (read-out: IC50) amounted to 1.72 nM.

`CCOCCn1nc(C(=O)O)c2nc(N(C)C(C)CC)nc(Nc3cc(C)ccn3)c21` (stereo not drawn) [Example 50]: the IC50 (read-out: IC50) was determined as 1.66 nM.

With `CCOCCn1nc(C(=O)O)c2nc(N(C)C)nc(Nc3cc(CC)ccn3)c21` [Example 37], the IC50 (read-out: IC50) came out at 23.9 nM.

`CCOCCn1nc(C(=O)O)c2nc(N(C)C(C)C)nc(Nc3ccc(F)c(F)c3)c21` [Example 90]: for the setting “read-out: IC50”, the IC50 was 2.83 nM.

As to `CCOCCn1nc(C(=O)O)c2nc(N(C)C(C)C)nc(Nc3cccc(C)c3)c21` [Example 94], where the note is “read-out: IC50”, the IC50 amounted to 0.303 nM.

For the compound `CCOCCn1nc(-c2nnn[nH]2)c2nc(N(C)C)nc(Nc3cc(C)ccn3)c21` [Example 80], under “read-out: IC50”, the IC50 stood at 2.88 nM.

As for `CCOCCn1nc(C(=O)O)c2nc(N(C)C)nc(Nc3ccnc(OC)n3)c21` [Example 71], where the note is “read-out: IC50”, the concentration for half-maximal inhibition (IC50) turned out to be 2.46 nM.

Take `CCOCCn1nc(C(=O)NS(C)(=O)=O)c2nc(N(C)CC)nc(Nc3cccc(C)n3)c21` [Example 149]: the IC50 (read-out: IC50) worked out at 14.4 nM.

For the compound `CCOCCn1nc(C(=O)O)c2nc(N(C)C(C)C)nc(NC3CCCC3)c21` [Example 31], the IC50 turned out to be 43.4 nM.

Regarding `CCOCCn1nc(C(=O)O)c2nc(N(C)C(C)C)nc(Nc3cnccn3)c21` [Example 29], the IC50 (read-out: IC50) came to 106 nM.

Take `CCOCCn1nc(C(=O)O)c2nc(N(C)C(C)C)nc(Nc3ccc(F)c(C)c3)c21` [Example 85]: the IC50 (read-out: IC50) turned out to be 0.055 nM.

Regarding `CCOCCn1nc(C(=O)O)c2nc(N(C)C(C)C)nc(Nc3cc(C)cc(C)n3)c21` [Example 26], under “read-out: IC50”, the IC50 stood at 1.64 nM.

`CCCN(C)c1nc(NC2CCCCC2)c2c(n1)c(C(=O)O)nn2CCOCC` [Example 30] returned a 50% inhibitory concentration (IC50) of 35.8 nM.

As to `Cc1ccnc(Nc2nc(N(C)C(C)C)nc3c(C(=O)NS(C)(=O)=O)nn(CCOCCCF)c23)c1` [Example 176], under “read-out: IC50”, the IC50 amounted to 0.17 nM.

With `CCOCCn1nc(C(=O)O)c2nc(N(C)C)nc(Nc3ccc(C)cn3)c21` [Example 24], the half-inhibitory concentration (IC50) (read-out: IC50) was 53.9 nM.

The compound `CCOCCn1nc(C(=O)O)c2nc(N(C)C(C)C)nc(NC3CCC3)c21` [Example 32] yielded a concentration for half-maximal inhibition (IC50) of 100 nM.

With `CCOCCn1nc(C(=O)O)c2nc(N(C)CC)nc(Nc3cccc(C)n3)c21` [Example 38], the IC50 (read-out: IC50) was found to be 16.7 nM.

For the compound `CCOCCn1nc(C(=O)O)c2nc(N(C)CC)nc(Nc3cc(C)ncn3)c21` [Example 120], the IC50 (read-out: IC50) amounted to 1.12 nM.

Regarding `CCOCCn1nc(C(=O)O)c2nc(N3CC[C@H](OC)C3)nc(Nc3cc(C)ccn3)c21` [Example 12], the IC50 (read-out: IC50) was determined as 14.7 nM.

As to `CCOCCn1nc(C(=O)O)c2nc(N(C)CC)nc(Nc3cc(C)ccc3F)c21` [Example 101], the IC50 (read-out: IC50) was 8.45 nM.

Regarding `Cc1cccc(Nc2nc(N(C)C(C)C)nc3c(C(=O)O)nn(CCOCC(F)(F)F)c23)c1` [Example 138], the IC50 (read-out: IC50) was determined as 0.065 nM.

Turning to `CCOCCn1nc(C(=O)O)c2nc(N(C)C(C)C)nc(Nc3cc(C)ncn3)c21` [Example 123], for the setting “read-out: IC50”, the IC50 was 0.628 nM.

Turning to `CCOCCn1nc(C(=O)O)c2nc(N(C)C)nc(Nc3cc(C)c(C)cn3)c21` [Example 41], the IC50 (read-out: IC50) was 3.2 nM.

For the compound `CCOCCn1nc(-c2nc(=O)o[nH]2)c2nc(N(C)CC)nc(Nc3cc(C)ccn3)c21` [Example 76], the IC50 (read-out: IC50) was determined as 0.465 nM.

As to `CCOCCn1nc(C(=O)O)c2nc(N(C)CC)nc(Nc3cccc(CC)n3)c21` [Example 97], the half-inhibitory concentration (IC50) (read-out: IC50) was 9.74 nM.

Regarding `CCOCCn1nc(C(=O)O)c2nc(N(C)C(C)C)nc(Nc3cc(F)ccc3F)c21` [Example 92], the IC50 (read-out: IC50) was 41 nM.

`CCOCCn1nc(C(=O)O)c2nc(N(C)C3CCC3)nc(N[C@@H]3CCOC3)c21` [Example 69] yielded an IC50 of 100 nM.

Turning to `CCOCCn1nc(C(=O)O)c2nc(N(CC)CC)nc(N[C@@H]3CCOC3)c21` [Example 68], the IC50 stood at 100 nM.

Regarding `CCOCCn1nc(C(=O)O)c2nc(N(C)C(C)C)nc(Nc3cccc(F)c3)c21` [Example 88], the IC50 (read-out: IC50) stood at 21.3 nM.

`CCOCCn1nc(C(=O)O)c2nc(N(C)C3CCC3)nc(Nc3cc(C)ccn3)c21` [Example 51]: the IC50 (read-out: IC50) was 2.57 nM.

In the case of `CCOCCn1nc(-c2nnn[nH]2)c2nc(N(C)C(C)C)nc(Nc3cc(C)ccn3)c21` [Example 79], the IC50 (read-out: IC50) came to 0.332 nM.

Consider `CCN(C)c1nc(Nc2cc(C)ccn2)c2c(n1)c(C(=O)O)nn2CCOCC(F)(F)F` [Example 127, 5-[Ethyl(methyl)amino]-7-[(4-methylpyridin-2-yl)amino]-1-[2-(2,2,2-trifluoroethoxy)ethyl]-1H-pyrazolo[4,3-d]pyrimidine-3-carboxylic acid], for which the IC50 (read-out: IC50) was determined as 6.34 nM.

Regarding `COC(C)CCn1nc(C(=O)O)c2nc(N(C)C(C)C)nc(Nc3cc(C)ccn3)c21` (stereo not drawn) [Example 107], the IC50 came out at 0.307 nM.

In the case of `CCN(C)c1nc(Nc2cc(C)ccn2)c2c(n1)c(C(=O)NS(C)(=O)=O)nn2CCOC` [Example 162], the IC50 (read-out: IC50) was 3.1 nM.

Take `CCCOCCn1nc(C(=O)NS(C)(=O)=O)c2nc(N(C)C(C)C)nc(Nc3cc(C)ccn3)c21` [Example 184, 5-[Isopropyl(methyl)amino]-7-[(4-methylpyridin-2-yl)amino]-N-(methylsulfonyl)-1-(2-propoxyethyl)-1H-pyrazolo[4,3-d]pyrimidine-3-carboxamide]: under “read-out: IC50”, the IC50 was determined as 0.5 nM.

Consider `CCOCCn1nc(C(=O)O)c2nc(N(CC)CC)nc(Nc3cc(C)ccn3)c21` [Example 11], for which the IC50 (read-out: IC50) came out at 1.09 nM.

Take `CCOCCn1nc(C(=O)O)c2nc(N(C)C3CCCC3)nc(Nc3cc(C)ccn3)c21` [Example 18]: for the setting “read-out: IC50”, the concentration for half-maximal inhibition (IC50) is 11.3 nM.

Consider `CCOCCn1nc(C(=O)O)c2nc(N(C)CC)nc(Nc3cc(C)nc(C)n3)c21` [Example 74], for which the IC50 (read-out: IC50) came out at 100 nM.

With `CCOCCn1nc(C(=O)O)c2nc(N(C)C(C)C)nc(Nc3cc(C)ccn3)c21` [Example 110, 1-(2-Ethoxyethyl)-5-(N-isopropyl-N-methylamino)-7-(4-methylpyridin-2-ylamino)-1H-pyrazolo[4,3-d]pyrimidine-3-carboxylic acid], the IC50 (read-out: IC50) was found to be 0.564 nM.

In the case of `CCOCCn1nc(C(=O)O)c2nc(N(C)C)nc(Nc3cc(C)ccn3)c21` [Example 14], where the note is “read-out: IC50”, the IC50 amounted to 8.75 nM.

With `CCOCCn1nc(C(=O)NS(C)(=O)=O)c2nc(N(C)C(C)C)nc(Nc3cc(C)ccn3)c21` [Example 113, N-[1-(2-Ethoxyethyl)-5-(N-isopropyl-N-methylamino)-7-(4-methylpyridin-2-ylamino)-1H-pyrazolo[4,3-d]pyrimidine-3-carbonyl]methanesulfonamide], the IC50 (read-out: IC50) turned out to be 0.27 nM.

`CCOCCn1nc(C(=O)OCCN(C)C)c2nc(N(C)C(C)C)nc(Nc3cc(C)ccn3)c21` [Example 147, 2-(Dimethylamino)ethyl 1-(2-ethoxyethyl)-5-[isopropyl(methyl)amino]-7-[(4-methylpyridin-2-yl)amino]-1H-pyrazolo[4,3-d]pyrimidine-3-carboxylate]: the IC50 (read-out: IC50) was determined as 0.141 nM.

As for `CCOCCn1nc(C(=O)O)c2nc(N(C)C(C)C)nc(Nc3ccccn3)c21` [Example 105], the IC50 (read-out: IC50) was found to be 0.741 nM.

As for `CCOCCn1nc(C(=O)O)c2nc(N(C)C(C)C)nc(NC3CCOCC3)c21` [Example 83], the IC50 (read-out: IC50) came to 27.8 nM.

As for `CCOCCn1nc(C(=O)O)c2nc(NC(C)C)nc(Nc3cc(C)ccn3)c21` [Example 54], where the note is “read-out: IC50”, the IC50 was determined as 2.03 nM.

The IC50 is the concentration that inhibits the measured activity by half.
